# In patent US20060069132A1, “Azolecarboxamide herbicides” (priority 2004, published 2006):
# Columns and labels:
# barnyardgrass [1] = experiment: Test A pre-/postemergence herbicide test; type: in vivo, Echinochloa crus-galli
# Outline: (§1)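 Visual injury rating on a 0–100 scale (0 no effect, 100 complete control) versus untreated controls, about ten days after treatment in greenhouse. Pre: directed soil spray onto seeded sandy loam. Post: spray to runoff on plants 2–10 cm tall at one- to two-leaf stage.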
# large crabgrass [2] = experiment: Test A pre-/postemergence herbicide test; type: in vivo, Digitaria sanguinalis
# Outline: as §1
# giant foxtail [3] = experiment: Test A pre-/postemergence herbicide test; type: in vivo, Setaria faberi
# Outline: as §1
# morningglory [4] = experiment: Test A pre-/postemergence herbicide test; type: in vivo, Ipomoea spp.
# Outline: as §1
# redroot pigweed = experiment: Test A pre-/postemergence herbicide test; type: in vivo, Amaranthus retroflexus
# Outline: as §1
# velvetleaf [5] = experiment: Test A pre-/postemergence herbicide test; type: in vivo, Abutilon theophrasti
# Outline: as §1
# barnyardgrass [6] = experiment: Test B pre-/postemergence herbicide test; type: in vivo, Echinochloa crus-galli; details: for Barnyardgrass plant response rating: postemergence
# Outline: (§2)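 Visual rating, 0 (no effect) to 100 (complete control), versus untreated controls after 13–15 d in greenhouse. Pre- and postemergence applications (postemergence plants 2–18 cm, 1–4 leaves); flooded paddy arm at 2-leaf stage. Compounds in non-phytotoxic solvent plus surfactant.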
# Surinam grass = experiment: Test B pre-/postemergence herbicide test; type: in vivo, Urochloa decumbens; details: for Surinam Grass plant response rating: postemergence
# Outline: (§3)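 Test chemicals in a non-phytotoxic solvent mixture with surfactant were applied preemergence to seeded species and postemergence to plants 2-18 cm tall (1- to 4-leaf stage); rice and barnyardgrass were also tested in a flooded paddy at the 2-leaf stage. Visual rating versus controls after 13-15 days in greenhouse, scale 0 (no effect) to 100 (complete control).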
# cocklebur = experiment: Test B pre-/postemergence herbicide test; type: in vivo, Xanthium strumarium; details: for Cocklebur plant response rating: postemergence
# Outline: as §2
# corn = experiment: Test B pre-/postemergence herbicide test; type: in vivo, Zea mays; details: for Corn plant response rating: postemergence
# Outline: as §3
# large crabgrass [7] = experiment: Test B pre-/postemergence herbicide test; type: in vivo, Digitaria sanguinalis; details: for Crabgrass, Large plant response rating: postemergence
# Outline: as §3
# giant foxtail [8] = experiment: Test B pre-/postemergence herbicide test; type: in vivo, Setaria faberi; details: for Foxtail, Giant plant response rating: postemergence
# Outline: as §3
# lambsquarters = experiment: Test B pre-/postemergence herbicide test; type: in vivo, Chenopodium album; details: for Lambsquarters plant response rating: postemergence
# Outline: as §3
# morningglory [9] = experiment: Test B pre-/postemergence herbicide test; type: in vivo, Ipomoea coccinea; details: for Morningglory plant response rating: postemergence
# Outline: as §2
# pigweed = experiment: Test B pre-/postemergence herbicide test; type: in vivo, Amaranthus retroflexus; details: for Pigweed plant response rating: postemergence
# Outline: as §3
# rice [10] = experiment: Test B pre-/postemergence herbicide test; type: in vivo, Oryza sativa; details: 0 = no effect, 100 = complete control, preemergence
# Outline: as §3
# velvetleaf [11] = experiment: Test B pre-/postemergence herbicide test; type: in vivo, Abutilon theophrasti; details: for Velvetleaf plant response rating: postemergence
# Outline: as §3
# blackgrass = experiment: Test B postemergence herbicide test; type: in vivo, Alopecurus myosuroides; details: postemergence
# Outline: (§4)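 Visual ratings, 0 (no effect) to 100 (complete control), made versus controls after 13–15 d greenhouse. Paddy plants treated at 2-leaf stage; postemergence plants at 1- to 4-leaf stage, 2–18 cm tall.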
# wheat = experiment: Test B postemergence herbicide test; type: in vivo, Triticum aestivum; set-up: key to Wheat plant response rating: 0 = no effect, 100 = complete control; details: postemergence
# Outline: (§5)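 Plants grow to 1- to 4-leaf stage (2–18 cm) for postemergence spraying, or to 2-leaf stage for the paddy test. Formulated compound is applied. Greenhouse holding lasts 13–15 days. Response is scored visually relative to controls, 0 no effect to 100 complete control; a dash means no result.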
# wild oat = experiment: Test B postemergence herbicide test; type: in vivo, Avena fatua; details: postemergence
# Outline: as §5
# rice [12] = experiment: Test B flooded paddy test; type: in vivo, Oryza sativa; details: 1000 g ai/ha, scale 0 to 100 (0 no effect, 100 complete control)
# Outline: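 Paddy species grown to the 2-leaf stage under flooding; blackgrass sprayed postemergence at 2–18 cm (1- to 4-leaf stage). Plants kept in a greenhouse for 13 to 15 days, then visually rated against controls on 0 (no effect) to 100 (complete control).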
# [13] = system: small flower umbrella sedge; experiment: Test B flooded paddy test; type: in vivo, Cyperus difformis; details: 1000 g ai/ha, scale 0 to 100 (0 no effect, 100 complete control)
# Outline: as §4
# ducksalad = experiment: Test B flooded paddy test; type: in vivo, Heteranthera limosa; details: 1000 g ai/ha, scale 0 to 100 (0 no effect, 100 complete control)
# Outline: as §4
# barnyardgrass [14] = experiment: Test B flooded paddy test; type: in vivo, Echinochloa crus-galli; details: 1000 g ai/ha, scale 0 to 100 (0 no effect, 100 complete control)
# Outline: as §4
# [15] = Postemergence, 500 g ai/ha, 0 to 100 scale, 0 no effect, 100 complete control
# [16] = Postemergence, 2000 g ai/ha, 0 to 100 scale, 0 no effect, 100 complete control
# [17] = Preemergence, 2000 g ai/ha, visual rating, 0 to 100 scale (0 no effect, 100 complete control)
# [18] = preemergence, 500 g ai/ha, visual injury, 0 to 100 scale (0 no effect, 100 complete control)
# [19] = 125 g ai/ha, 0 = no effect, 100 = complete control, preemergence
# [20] = 500 g ai/ha, visual rating, 0 = no effect, 100 = complete control, preemergence
# [21] = 125 g ai/ha, visual rating, scale 0 (no effect) to 100 (complete control)
# [22] = 500 g ai/ha, scale 0 to 100, 0 is no effect, 100 is complete control
smiles,measurement,setting,value
CCn1nc(C(C)(C)C)cc1C(=O)Nc1ccnc(C(=O)N2CC=CC2)c1 [Compound 282],Barnyardgrass plant response rating,barnyardgrass [1]; [15],40
same,"Plant response rating, Barnyardgrass",barnyardgrass [1]; [16],80
same,Barnyardgrass plant response rating,barnyardgrass [1]; [17],75
same,Barnyardgrass plant response rating,barnyardgrass [1]; [18],30
same,"Crabgrass, Large plant response rating",large crabgrass [2]; [15],10
same,"Plant response rating, Crabgrass, Large",large crabgrass [2]; [16],25
same,"Crabgrass, Large plant response rating",large crabgrass [2]; [17],65
same,"Crabgrass, Large plant response rating",large crabgrass [2]; [18],40
same,"Foxtail, Giant plant response rating",giant foxtail [3]; [15],20
same,"Plant response rating, Foxtail, Giant",giant foxtail [3]; [16],25
same,"Foxtail, Giant plant response rating",giant foxtail [3]; [17],40
same,"Foxtail, Giant plant response rating",giant foxtail [3]; [18],10
same,Morningglory plant response rating,morningglory [4]; [15],15
same,"Plant response rating, Morningglory",morningglory [4]; [16],15
same,Morningglory plant response rating,morningglory [4]; [17],40
same,Morningglory plant response rating,morningglory [4]; [18],10
same,Pigweed plant response rating,redroot pigweed; [15],75
same,"Plant response rating, Pigweed",redroot pigweed; [16],100
same,Pigweed plant response rating,redroot pigweed; [17],90
same,Pigweed plant response rating,redroot pigweed; [18],90
same,Velvetleaf plant response rating,velvetleaf [5]; [15],50
same,"Plant response rating, Velvetleaf",velvetleaf [5]; [16],50
same,Velvetleaf plant response rating,velvetleaf [5]; [17],45
same,Velvetleaf plant response rating,velvetleaf [5]; [18],20
same,Barnyardgrass plant response rating (0 to 100 scale),barnyardgrass [6]; [19],30
same,"Plant response rating, Barnyardgrass",barnyardgrass [6]; [20],50
same,Barnyardgrass plant response rating,barnyardgrass [6]; [21],0
same,Barnyardgrass plant response rating,barnyardgrass [6]; [22],20
same,Surinam Grass plant response rating (0 to 100 scale),Surinam grass; [19],0
same,"Plant response rating, Surinam Grass",Surinam grass; [20],20
same,Surinam Grass plant response rating,Surinam grass; [21],10
same,Surinam Grass plant response rating,Surinam grass; [22],10
same,Cocklebur plant response rating (0 to 100 scale),cocklebur; [19],0
same,"Plant response rating, Cocklebur",cocklebur; [20],0
same,Cocklebur plant response rating,cocklebur; [21],10
same,Cocklebur plant response rating,cocklebur; [22],20
same,Corn plant response rating (0 to 100 scale),corn; [19],0
same,"Plant response rating, Corn",corn; [20],0
same,Corn plant response rating,corn; [21],10
same,Corn plant response rating,corn; [22],20
same,"Crabgrass, Large plant response rating (0 to 100 scale)",large crabgrass [7]; [19],10
same,"Plant response rating, Crabgrass, Large",large crabgrass [7]; [20],80
same,"Crabgrass, Large plant response rating",large crabgrass [7]; [21],10
same,"Crabgrass, Large plant response rating",large crabgrass [7]; [22],10
same,"Foxtail, Giant plant response rating (0 to 100 scale)",giant foxtail [8]; [19],10
same,"Plant response rating, Foxtail, Giant",giant foxtail [8]; [20],20
same,"Foxtail, Giant plant response rating",giant foxtail [8]; [21],20
same,"Foxtail, Giant plant response rating",giant foxtail [8]; [22],20
same,Lambsquarters plant response rating (0 to 100 scale),lambsquarters; [19],100
same,"Plant response rating, Lambsquarters",lambsquarters; [20],100
same,Lambsquarters plant response rating,lambsquarters; [21],10
same,Lambsquarters plant response rating,lambsquarters; [22],60
same,Morningglory plant response rating (0 to 100 scale),morningglory [9]; [19],0
same,"Plant response rating, Morningglory",morningglory [9]; [20],0
same,Morningglory plant response rating,morningglory [9]; [21],10
same,Morningglory plant response rating,morningglory [9]; [22],20
same,Pigweed plant response rating (0 to 100 scale),pigweed; [19],100
same,"Plant response rating, Pigweed",pigweed; [20],100
same,Pigweed plant response rating,pigweed; [21],20
same,Pigweed plant response rating,pigweed; [22],60
same,Rice plant response rating (0 to 100 scale),rice [10]; 125 g ai/ha,10
same,"Plant response rating, Rice","rice [10]; 500 g ai/ha, visual rating",40
same,Velvetleaf plant response rating (0 to 100 scale),velvetleaf [11]; [19],10
same,"Plant response rating, Velvetleaf",velvetleaf [11]; [20],30
same,Velvetleaf plant response rating,velvetleaf [11]; [21],10
same,Velvetleaf plant response rating,velvetleaf [11]; [22],20
same,Blackgrass plant response rating,blackgrass; [21],20
same,Blackgrass plant response rating,blackgrass; [22],30
same,Wheat plant response rating,wheat; [21],30
same,Wheat plant response rating,wheat; [22],30
same,"Oat, Wild plant response rating",wild oat; [21],0
same,"Oat, Wild plant response rating",wild oat; [22],20
same,Rice plant response rating,rice [12],20
same,"Sedge, Umbrella plant response rating",[13],0
same,Ducksalad plant response rating,ducksalad,80
same,Barnyardgrass plant response rating,barnyardgrass [14],20
